{
  "source": "patent US7109235B2",
  "about": "“Microtubule stabilizing compounds” (The Board of Trustees of the University Illinois, priority 2002, dated 2006)",
  "key": {"[1]": {"tested_on": "MCF-7 breast cancer cells", "assay": "cytotoxicity assay on MCF-7 breast cancer cells", "assay_type": "cell-based, human", "experimental": "The cytotoxic activity of trans-desoxylaulimalide (12a) was evaluated. An initial cytotoxicity study with desoxylaulimalide (12a) was conducted to compare compound (12a) to taxol and laulimalide for effects on the growth of human MCF-7 breast cancer cells. Cytotoxicity assays on MCF-7 were performed as described in P. Giannakakou et al., J. Biol. Chem., 272, 17118–17125 (1997). Consistent with its activity in a tubulin assembly assay, desoxylaulimalide (12a) was an inhibitor of cell growth. […] Thus, desoxylaulimalide (12a) is about 1/50 as active as laulimalide in the MCF-7 cells. This compares with the 340-fold lower activity in MDA-MB-435 breast cancer cells observed for isolaulimalide (9), which also lacks the epoxide moiety."}, "[2]": {"tested_on": "MDA-MB-435 and SK-OV-3 cell lines", "conditions": "drug-sensitive cell lines MDA-MB-435 and SK-OV-3; read-out: IC50, inhibition of cell proliferation; cited from earlier work"}, "KB cell line": {"tested_on": "KB cell line", "conditions": "cited from earlier work"}, "[3]": {"tested_on": "SKVLB-1 multidrug resistant cell line", "conditions": "multidrug resistant cell line SKVLB-1; read-out: IC50 against SKVLB-1; cited from earlier work"}, "[4]": {"tested_on": "MDA-MB-435 breast cancer cells", "conditions": "cited from earlier work"}, "[5]": {"tested_on": "P388, A549, HT29, and MEL28 cell lines", "conditions": "range over four cell lines; cited from earlier work"}, "[6]": {"tested_on": "P-glycoprotein-mediated MDR cell lines", "conditions": "cited from earlier work"}, "tubulin": {"tested_on": "tubulin", "assay": "tubulin assembly assay / microtubule stabilization", "assay_type": "biochemical"}, "[7]": {"conditions": "Homo sapiens, MCF7, read-out: IC50, inhibition of cell growth"}},
  "note": "Like-named read-outs stand apart in the source and are kept apart here.",
  "data": [
    {"smiles": "CC(=O)O[C@H]1C(=O)[C@@]2(C)[C@H]([C@H](OC(=O)c3ccccc3)[C@]3(O)C[C@H](OC(=O)[C@H](O)[C@@H](NC(=O)c4ccccc4)c4ccccc4)C(C)=C1C3(C)C)[C@]1(OC(C)=O)CO[C@@H]1C[C@@H]2O", "note": "[taxol]", "values": [
      {"measurement": "IC50", "setting": "[1]; MCF7, human MCF-7 breast cancer cells, read-out: IC50, inhibition of cell growth", "value": 2.4, "unit": "nM"},
      {"measurement": "IC50", "setting": "[2]", "value": "1000 to 2000", "unit": "nM"}
    ]},
    {"smiles": "C=C1CC(C)C[C@@H]2CC=C[C@@H](C/C=C\\C(=O)O[C@@H]3C[C@H](O[C@@H]3/C=C/[C@H]3CC(C)=CCO3)[C@H](O)C(O)C1)O2", "note": "(stereo partly drawn) [isolaulimalide]", "values": [
      {"measurement": "IC50", "setting": "KB cell line; read-out: IC50 against KB cell line", "value": "> 200", "unit": "nM"},
      {"measurement": "IC50", "setting": "[3]", "value": 2600, "unit": "nM"},
      {"measurement": "fold lower activity (compared with laulimalide)", "setting": "[4]", "value": 340, "unit": "fold"}
    ]},
    {"smiles": "C=C1C[C@H](C)C[C@@H]2CC=C[C@@H](C/C=C\\C(=O)O[C@H]([C@@H](O)/C=C/[C@@H]3CC(C)=CCO3)C[C@@H]3O[C@H]3[C@@H](O)C1)O2", "note": "[laulimalide]", "values": [
      {"measurement": "IC50", "setting": "[1]; [7]", "value": 7, "unit": "nM"},
      {"measurement": "IC50, cytotoxicity against KB cell line", "setting": "KB cell line", "value": 15, "unit": "ng/mL"},
      {"measurement": "IC50, cytotoxicity against P388, A549, HT29, and MEL28 cell lines", "setting": "[5]", "value": "10 to 50", "unit": "ng/mL"},
      {"measurement": "IC50", "setting": "[2]", "value": "5 to 12", "unit": "nM"},
      {"measurement": "IC50", "setting": "[3]", "value": 1200, "unit": "nM"},
      {"measurement": "fold more potent than taxol", "setting": "[6]", "value": 100, "unit": "fold"}
    ]},
    {"smiles": "C=C1C[C@H](C)C[C@@H]2CC=C[C@@H](C/C=C\\C(=O)O[C@H]([C@@H](O)/C=C/[C@@H]3CC(C)=CCO3)C/C=C/[C@@H](O)C1)O2", "note": "[12a, desoxylaulimalide]", "values": [
      {"measurement": "IC50", "setting": "[1]; [7]", "value": 360, "unit": "nM"},
      {"measurement": "activity relative to laulimalide", "setting": "[1]; MCF-7 cells", "value": "about 1/50"},
      {"measurement": "effect on the tubulin assembly reaction", "setting": "tubulin", "value": "stimulates the tubulin assembly reaction"},
      {"measurement": "potency with respect to microtubule stabilization", "setting": "tubulin; compared with laulimalide (2)", "value": "potency similar to laulimalide (2)"}
    ]}
  ]
}
